≈ marks a conversion by molar mass, not a printed value.
Assays:
[1] = molecular target: T1, PBP3 from Acinetobacter baumannii (ATCC 19606) (Acinetobacter baumannii, UniProt A0ABX6CK25); test: Bocillin-FL fluorescence polarization competition binding, A. baumannii PBP3; conditions: fluorescence polarization competition binding assay using Bocillin-FL; read-out: A. baumannii PBP3 Potency
T1 sequence (A0ABX6CK25 64-610): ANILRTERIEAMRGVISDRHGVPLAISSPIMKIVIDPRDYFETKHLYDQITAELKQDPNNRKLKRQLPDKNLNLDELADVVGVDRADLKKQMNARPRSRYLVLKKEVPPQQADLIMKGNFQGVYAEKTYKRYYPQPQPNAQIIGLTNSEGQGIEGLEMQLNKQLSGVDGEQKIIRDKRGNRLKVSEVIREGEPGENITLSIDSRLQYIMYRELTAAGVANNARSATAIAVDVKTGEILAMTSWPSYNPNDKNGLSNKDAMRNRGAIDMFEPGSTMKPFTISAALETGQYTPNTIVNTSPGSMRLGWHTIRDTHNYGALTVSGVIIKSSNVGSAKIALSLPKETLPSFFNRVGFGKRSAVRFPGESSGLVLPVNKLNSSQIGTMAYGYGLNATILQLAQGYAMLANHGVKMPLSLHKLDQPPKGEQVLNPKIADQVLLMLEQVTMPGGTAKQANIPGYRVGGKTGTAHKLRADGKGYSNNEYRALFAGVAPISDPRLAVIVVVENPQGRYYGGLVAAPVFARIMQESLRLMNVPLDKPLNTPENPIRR
Outline: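 Purified PBP was preincubated with inhibitor (E. coli PBP3 1.5 μM, 30 min; P. aeruginosa PBP3 0.75 μM, A. baumannii PBP3 0.2 μM and PBP1a 1 μM, 15 min), then Bocillin-FL (0.1 μM; 0.05 μM for PBP1a) added and FP read up to 60 min. EC50 = 50% loss of bound probe.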

P. aeruginosa ATCC 27853 = test: microbe, parasite or virus in culture; assay type: cell-based; conditions: Pseudomonas aeruginosa, ATCC27853, read-out: Minimum inhibitory concentration, P. aeruginosa ATCC 27853
A. baumannii 1258916 = test: microbe, parasite or virus in culture; assay type: cell-based, Acinetobacter baumannii; conditions: Acinetobacter baumannii, 1258916, read-out: MIC, A. baumannii 1258916
[2] = test system: B. thailandensis ATCC 700388; test: microbe, parasite or virus in culture; assay type: cell-based; conditions: Burkholderia thailandensis, ATCC700388, read-out: Minimum inhibitory concentration (MIC), B. thailandensis ATCC 700388

O=C(NCCS(=O)(=O)N1CCN(C(=O)N[C@H](C(=O)N[C@H]2Cc3ccc(F)c(C(=O)O)c3OB2O)c2cc(F)c(O)c(O)c2Cl)C1=O)c1ccc(O)cc1 [Example 286, (R)-3-((S)-2-(2-chloro-5-fluoro-3,4-dihydroxyphenyl)-2-(3-((2-(4-hydroxybenzamido)ethyl)sulfonyl)-2-oxoimidazolidine-1-carboxamido)acetamido)-7-fluoro-2-hydroxy-3,4-dihydro-2H-benzo[e][1,2]oxaborinine-8-carboxylic acid]
IC50 [1]: 50 to 250 µM | MIC (P. aeruginosa ATCC 27853): > 128 µg/mL | MIC (A. baumannii 1258916): > 128 µg/mL | MIC [2]: > 128 µg/mL

O=C(NCCS(=O)(=O)N1CCN(C(=O)N[C@@H](C(=O)N[C@H]2Cc3ccc(F)c(C(=O)O)c3OB2O)c2cc(F)c(O)c(O)c2Cl)C1=O)c1ccc(O)cc1 [Example 287, (R)-3-((R)-2-(2-chloro-5-fluoro-3,4-dihydroxyphenyl)-2-(3-((2-(4-hydroxybenzamido)ethyl)sulfonyl)-2-oxoimidazolidine-1-carboxamido)acetamido)-7-fluoro-2-hydroxy-3,4-dihydro-2H-benzo[e][1,2]oxaborinine-8-carboxylic acid]
IC50 [1]: < 10 µM | MIC (P. aeruginosa ATCC 27853): 2 to 4 µg/mL (≈ 2.56 to 5.12 µM) | MIC (A. baumannii 1258916): < 1 µg/mL | MIC [2]: 2 to 4 µg/mL (≈ 2.56 to 5.12 µM)

O=C(NCCS(=O)(=O)N1CCN(C(=O)NC(C(=O)N[C@H]2Cc3ccc(F)c(C(=O)O)c3OB2O)c2cc(F)c(O)c(O)c2Cl)C1=O)c1ccncc1 (stereo partly drawn) [Example 288, (3R)-3-(2-(2-chloro-5-fluoro-3,4-dihydroxyphenyl)-2-(3-((2-(isonicotinamido)ethyl)sulfonyl)-2-oxoimidazolidine-1-carboxamido)acetamido)-7-fluoro-2-hydroxy-3,4-dihydro-2H-benzo[e][1,2]oxaborinine-8-carboxylic acid]
IC50 [1]: < 10 µM | MIC (P. aeruginosa ATCC 27853): 2 to 4 µg/mL (≈ 2.61 to 5.22 µM) | MIC (A. baumannii 1258916): < 1 µg/mL | MIC [2]: 2 to 4 µg/mL (≈ 2.61 to 5.22 µM)

O=C(NCCS(=O)(=O)N1CCN(C(=O)NC(C(=O)N[C@H]2Cc3ccc(F)c(C(=O)O)c3OB2O)c2cc(F)c(O)c(O)c2Cl)C1=O)Nc1ccc(O)cc1 (stereo partly drawn) [Example 289, (3R)-3-(2-(2-chloro-5-fluoro-3,4-dihydroxyphenyl)-2-(3-((2-(3-(4-hydroxyphenyl)ureido)ethyl)sulfonyl)-2-oxoimidazolidine-1-carboxamido)acetamido)-7-fluoro-2-hydroxy-3,4-dihydro-2H-benzo[e][1,2]oxaborinine-8-carboxylic acid]
IC50 [1]: < 10 µM | MIC (P. aeruginosa ATCC 27853): 2 to 4 µg/mL (≈ 2.51 to 5.02 µM) | MIC (A. baumannii 1258916): < 1 µg/mL | MIC [2]: 8 to 16 µg/mL (≈ 10 to 20.1 µM)

O=C(NCCS(=O)(=O)N1CCN(C(=O)N[C@@H](C(=O)N[C@H]2Cc3ccc(F)c(C(=O)O)c3OB2O)c2cc(F)c(O)c(O)c2Cl)C1=O)Nc1ccncc1 [Example 290, (R)-3-((R)-2-(2-chloro-5-fluoro-3,4-dihydroxyphenyl)-2-(2-oxo-3-((2-(3-(pyridin-4-yl)ureido)ethyl)sulfonyl)imidazolidine-1-carboxamido)acetamido)-7-fluoro-2-hydroxy-3,4-dihydro-2H-benzo[e][1,2]oxaborinine-8-carboxylic acid]
IC50 [1]: < 10 µM | MIC (P. aeruginosa ATCC 27853): 2 to 4 µg/mL (≈ 2.56 to 5.12 µM) | MIC (A. baumannii 1258916): < 1 µg/mL | MIC [2]: 2 to 4 µg/mL (≈ 2.56 to 5.12 µM)

O=C(NCCCS(=O)(=O)N1CCN(C(=O)NC(C(=O)N[C@H]2Cc3ccc(F)c(C(=O)O)c3OB2O)c2cc(F)c(O)c(O)c2Cl)C1=O)Nc1ccncc1 (stereo partly drawn) [Example 291, (3R)-3-(2-(2-chloro-5-fluoro-3,4-dihydroxyphenyl)-2-(2-oxo-3-((3-(3-(pyridin-4-yl)ureido)propyl)sulfonyl)imidazolidine-1-carboxamido)acetamido)-7-fluoro-2-hydroxy-3,4-dihydro-2H-benzo[e][1,2]oxaborinine-8-carboxylic acid]
IC50 [1]: < 10 µM | MIC (P. aeruginosa ATCC 27853): 2 to 4 µg/mL (≈ 2.51 to 5.03 µM) | MIC (A. baumannii 1258916): < 1 µg/mL | MIC [2]: 2 to 4 µg/mL (≈ 2.51 to 5.03 µM)

O=C(O)c1c(F)ccc2c1OB(O)[C@@H](NC(=O)C(NC(=O)N1CCN(Cc3ccc(O)c(O)c3Cl)C(=O)C1=O)c1cc(F)c(O)c(O)c1Cl)C2 (stereo partly drawn) [Example 292, (3R)-3-(2-(4-(2-chloro-3,4-dihydroxybenzyl)-2,3-dioxopiperazine-1-carboxamido)-2-(2-chloro-5-fluoro-3,4-dihydroxyphenyl)acetamido)-7-fluoro-2-hydroxy-3,4-dihydro-2H-benzo[e][1,2]oxaborinine-8-carboxylic acid]
IC50 [1]: < 10 µM | MIC (P. aeruginosa ATCC 27853): < 1 µg/mL | MIC (A. baumannii 1258916): > 128 µg/mL | MIC [2]: > 128 µg/mL

O=C(O)c1c(F)ccc2c1OB(O)[C@@H](NC(=O)C(NC(=O)N1CCN(C3CCN(C(=O)c4cccc(O)c4)CC3)C(=O)C1=O)c1cc(F)c(O)c(O)c1Cl)C2 (stereo partly drawn) [Example 293, (3R)-3-(2-(2-chloro-5-fluoro-3,4-dihydroxyphenyl)-2-(4-(1-(3-hydroxybenzoyl)piperidin-4-yl)-2,3-dioxopiperazine-1-carboxamido)acetamido)-7-fluoro-2-hydroxy-3,4-dihydro-2H-benzo[e][1,2]oxaborinine-8-carboxylic acid]
IC50 [1]: < 10 µM | MIC (P. aeruginosa ATCC 27853): 2 to 4 µg/mL (≈ 2.54 to 5.09 µM) | MIC (A. baumannii 1258916): < 1 µg/mL | MIC [2]: < 1 µg/mL

O=C(NCCCN1CCN(C(=O)N[C@@H](C(=O)N[C@H]2Cc3ccc(F)c(C(=O)O)c3OB2O)c2cc(F)c(O)c(O)c2Cl)C(=O)C1=O)c1ccncc1 [Example 294, (R)-3-((R)-2-(2-chloro-5-fluoro-3,4-dihydroxyphenyl)-2-(4-(3-(isonicotinamido)propyl)-2,3-dioxopiperazine-1-carboxamido)acetamido)-7-fluoro-2-hydroxy-3,4-dihydro-2H-benzo[e][1,2]oxaborinine-8-carboxylic acid]
IC50 [1]: < 10 µM | MIC (P. aeruginosa ATCC 27853): < 1 µg/mL | MIC (A. baumannii 1258916): < 1 µg/mL | MIC [2]: < 1 µg/mL

O=C(NCCCN1CCN(C(=O)NC(C(=O)N[C@H]2Cc3ccc(F)c(C(=O)O)c3OB2O)c2cc(F)c(O)c(O)c2Cl)C(=O)C1=O)c1ccncc1Cl (stereo partly drawn) [Example 295, (3R)-3-(2-(2-chloro-5-fluoro-3,4-dihydroxyphenyl)-2-(4-(3-(3-chloroisonicotinamido)propyl)-2,3-dioxopiperazine-1-carboxamido)acetamido)-7-fluoro-2-hydroxy-3,4-dihydro-2H-benzo[e][1,2]oxaborinine-8-carboxylic acid]
IC50 [1]: < 10 µM | MIC (P. aeruginosa ATCC 27853): 2 to 4 µg/mL (≈ 2.57 to 5.13 µM) | MIC (A. baumannii 1258916): < 1 µg/mL | MIC [2]: 2 to 4 µg/mL (≈ 2.57 to 5.13 µM)

O=C(NCCCN1CCN(C(=O)N[C@@H](C(=O)N[C@H]2Cc3ccc(F)c(C(=O)O)c3OB2O)c2cc(F)c(O)c(O)c2Cl)C(=O)C1=O)c1ccncc1O [Example 296, (R)-3-((R)-2-(2-chloro-5-fluoro-3,4-dihydroxyphenyl)-2-(4-(3-(3-hydroxyisonicotinamido)propyl)-2,3-dioxopiperazine-1-carboxamido)acetamido)-7-fluoro-2-hydroxy-3,4-dihydro-2H-benzo[e][1,2]oxaborinine-8-carboxylic acid]
IC50 [1]: < 10 µM | MIC (P. aeruginosa ATCC 27853): < 1 µg/mL | MIC (A. baumannii 1258916): < 1 µg/mL | MIC [2]: 2 to 4 µg/mL (≈ 2.63 to 5.26 µM)

Cc1cnccc1C(=O)NCCCN1CCN(C(=O)NC(C(=O)N[C@H]2Cc3ccc(F)c(C(=O)O)c3OB2O)c2cc(F)c(O)c(O)c2Cl)C(=O)C1=O (stereo partly drawn) [Example 297, (3R)-3-(2-(2-chloro-5-fluoro-3,4-dihydroxyphenyl)-2-(4-(3-(3-methylisonicotinamido)propyl)-2,3-dioxopiperazine-1-carboxamido)acetamido)-7-fluoro-2-hydroxy-3,4-dihydro-2H-benzo[e][1,2]oxaborinine-8-carboxylic acid]
IC50 [1]: < 10 µM | MIC (P. aeruginosa ATCC 27853): < 1 µg/mL | MIC (A. baumannii 1258916): < 1 µg/mL | MIC [2]: 2 to 4 µg/mL (≈ 2.64 to 5.27 µM)

Cc1cc(C(=O)NCCCN2CCN(C(=O)N[C@@H](C(=O)N[C@H]3Cc4ccc(F)c(C(=O)O)c4OB3O)c3cc(F)c(O)c(O)c3Cl)C(=O)C2=O)ccn1 [Example 298, (R)-3-((R)-2-(2-chloro-5-fluoro-3,4-dihydroxyphenyl)-2-(4-(3-(2-methylisonicotinamido)propyl)-2,3-dioxopiperazine-1-carboxamido)acetamido)-7-fluoro-2-hydroxy-3,4-dihydro-2H-benzo[e][1,2]oxaborinine-8-carboxylic acid]
IC50 [1]: < 10 µM | MIC (P. aeruginosa ATCC 27853): 2 to 4 µg/mL (≈ 2.64 to 5.27 µM) | MIC (A. baumannii 1258916): < 1 µg/mL | MIC [2]: < 1 µg/mL

O=C(NCCCN1CCN(C(=O)N[C@H](C(=O)N[C@H]2Cc3ccc(F)c(C(=O)O)c3OB2O)c2cc(F)c(O)c(O)c2Cl)C(=O)C1=O)c1ccnc(F)c1F [Example 299, (R)-3-((S)-2-(2-chloro-5-fluoro-3,4-dihydroxyphenyl)-2-(4-(3-(2,3-difluoroisonicotinamido)propyl)-2,3-dioxopiperazine-1-carboxamido)acetamido)-7-fluoro-2-hydroxy-3,4-dihydro-2H-benzo[e][1,2]oxaborinine-8-carboxylic acid]
IC50 [1]: 10 to 50 µM | MIC (P. aeruginosa ATCC 27853): 8 to 16 µg/mL (≈ 10.2 to 20.5 µM) | MIC (A. baumannii 1258916): 8 to 16 µg/mL (≈ 10.2 to 20.5 µM) | MIC [2]: > 128 µg/mL
